Laboratory results published in patent publication US11331294B2, “Benzoquinone derivative E3330 in combination with chemotherapeutic agents for the treatment of bladder cancer” (Indiana University Research and Technology Corporation, priority 2007, dated 2022).

Assays:
[1] = test system: SW780, T24, UC3 cell lines; assay: Methylene blue cell growth assay, bladder cancer cell panel; assay type: cell-based, human
Experimental: FIGS. 31A & 31B. Treatment with APE1/Ref-1 inhibitors potently blocks bladder cancer cell proliferation and activated Caspase 3/7. […] The IC50 values for FIG. 31A were determined using the methylene blue assay, n=4. […] T24 and UC3 cells were treated with APX2009 and APX2014 at the IC50 and IC90 and monitored over time for activation of capsase 3/7 by an increase in red fluorescence. Time course graphs are shown in FIG. 31B and representative images at 48 hr are shown in FIG. 32A (described more fully below), n=3-4.
Bladder cancer cell proliferation was inhibited and apoptosis was induced by potent, selective redox inhibitors of APE1/Ref-1.

[2] = test system: RP-B-01, RP-B-02 and T24 cell lines; assay: Alamar blue combination study with cisplatin; assay type: cell-based, human; conditions: combined with increasing concentrations of cisplatin, 72 h
Experimental: FIGS. 30A-30C. […] RP-B-01, RP-B-02, and T24 cell lines were treated with increasing concentrations of cisplatin in combination with a single dose of either APX2009 or APX2014 as indicated (n=3±SE). Cell proliferation was normalized to Saline control and expressed as Fold Change. Combination index (CI) values calculated with Compusyn for combination of APX inhibitors and cisplatin. CI values indicated mainly additivity (0.95-1.2) to synergy (0.8-0.94).
Bladder cancer cell lines (BLCAb001 (RP-B-01) and BLCAb002 (RP-B-02) maintained in RPMI growth medium with 10% FBS were plated at 4,000 cells/well in poly-D-lysine treated 96-well clear bottom black plates and grown overnight in 5% CO2 at 37° C. Cells in monolayer were then treated with increasing concentrations of redox-specific inhibitor APX3330, APX2014 or APX2009 and serially diluted 1:2 in a 5-point dose scheme. For combination studies, cells were treated with both cisplatin and APX compounds to determine efficacy. After 72 hours, fresh RPMI medium with 5% FBS was exchanged, and a fluorescent metabolic indicator, Alamar Blue was added to each well at 10% final concentration. After a 4 hour incubation, plates were read on a Synergy H4 (Bio-Tek) plate reader. […]
APE1/Ref-1 inhibition enhances cisplatin's therapeutic effect. […] Cell proliferation was assessed using Alamar blue 72 h after drug treatment.

NFκB = assay: NFκB-driven luciferase reporter; assay type: cell-based, human; conditions: T24 and UC3 cells induced with TNFa, IC50 concentration, 24 h
Experimental: FIGS. 36A-36H. […] In cytokine-induced T24 and UC3 cells NFκB-driven luciferase (FIG. 36A), STAT3-driven luciferase (FIG. 36B), and AP-1-driven luciferase (FIG. 36C) were quantified and normalized via Renilla following treatment with the corresponding cell growth-inhibitory IC50 concentrations. T24 cells were treated with APX2009 (8.5 μM) and APX2014 (6.5 μM), and UC3 cells were treated with APX2009 (6.1 μM) and APX2014 (4.6 μM) for 24 h. (*-p<0.05 APX treated vs vehicle, n=4). […] In the panels of FIGS. 36F & 36G, co-expression of survivin and APE1/Ref-1 was analyzed in superficial (FIG. 36F) and invasive human bladder tumors (FIG. 36G) in patients, and found nearly universal overlap of positivity in both in human samples. This was also true in cisplatin-refractory patients from the tissue microarray specimens (FIG. 36H).
The transcriptional activity of NFκB, STAT3, and AP-1 is under redox control by APE1/Ref-1. Therefore, NFκB, STAT3, or AP-1 transcriptional activity was quantified following treatment with APE1/Ref-1 redox inhibitors (FIGS. 36A-36C).

sensory neurons = assay: Ex vivo model of sensory neurons in culture (neurotoxicity); assay type: cell-based
ECFC colonies = assay: Limiting dilution assay (LDA); assay type: cell-based; conditions: 25, 37.5, 50 μM
Experimental: Limiting dilution assay. […] ECFCs were cultured as previously described (Blood, 1 Nov. 2004, Vol. 104, No. 9, pp. 2752-2760). ECFC colonies appeared between 5 and 22 days of culture. Colonies and the number of cells per colony were counted by visual inspection using an inverted microscope. […] Increasing amounts of APX3330(RN3-3) leads to a decrease in the number of colonies with large numbers of cells and an increase in colonies with only small cell numbers indicative of inhibition of cell growth. (FIG. 9). (In FIG. 9, the bars are, left to right, EtOH, and E330 dosed at 25 μM, 37.5 μM, and 50 μM.)

[3] = test system: subretinal neovascularization (SNV) in vldlr-/- retina; assay: SNV in vldlr-/- knockout mice assay; assay type: in vivo; conditions: single intravitreal injection, one week after treatment
Experimental: SNV in vldlr−/− knockout mice assay. […] Experiments were carried out in very-low-density lipoprotein receptor (vldr) knockout mice to determine the effect of APX3330 on inhibition of SNV development in the vldlr−/− mutant. Each animal received a single intravitreal injection of 1 μl volume of BSS as a vehicle control and the fellow eye received 1 μl of […] APX3330. The final concentration of APX3330 was equivalent to approximately 20 μM in the retina. Quantitative measurement of SNV was carried out one week after the treatment in the whole mount retina after lectin-FITC staining. […] The apparent increase of SNV after antibody injection could be due to foreign protein triggered immune response which has been reported before (Tator et al., 2008). APX3330 reduced the number of SNV at a statistically significant level (p<0.01 in paired t-test). […] The Ape1/Ref-1 inhibitor offers a new approach to control angiogenesis for advanced macular degeneration (AMD) treatment.

Row | SMILES | fold lower IC50 than APX3330 [1] [fold] | cellular proliferation when combined with cisplatin [2] | reduction of NFκB-driven luciferase activity (NFκB) [fold] | neuroprotection against platinum-induced toxicity (sensory neurons) | growth of large cell number colonies (ECFC colonies) | individuals with reduced number of SNV in treated eye [3] | reduction of number of SNV [3] [%]
1 | CCC/C(=C\C1=C(OC)C(=O)c2ccccc2C1=O)C(=O)N(CC)CC [APX2009, [(2E)-2-[(3-methoxy-1,4-dioxo-1,4-dihydronaphthalen-2-yl)methylidene]-N,N-diethylpentanamide]] | 7 | further reduction in cellular proliferation | 2 | neuroprotective against cisplatin and oxaliplatin-induced toxicity of sensory neurons |  |  | 
2 | CCCCCCCCC/C(=C\C1=C(C)C(=O)C(OC)=C(OC)C1=O)C(=O)O [APX3330] |  |  |  |  | inhibit growth of large cell number colonies | 17/20 | ~30
